# Experimental data: US10294229B2, “Heteroaryl substituted aminopyridine compounds” (BRISTOL-MYERS SQUIBB COMPANY, priority 2015, dated 2019)
# Target: IRAK4 (Homo sapiens (Human), UniProt Q9NWZ3)
# Assay: IRAK4 Inhibition Assay
# Type: biochemical
# Conditions: ATP 500 μM; IRAK4 0.6 nM
# How it was run: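 Mobility-shift readout: phosphorylated and unphosphorylated fluorescent peptide (1.5 μM) resolved by electrophoresis after a 60 min room-temperature reaction stopped with EDTA. Reaction holds 0.6 nM IRAK4, 500 μM ATP and 1.6% DMSO in HEPES pH 7.2/MgCl2/Brij 35/DTT buffer; percent inhibition set against vehicle and no-enzyme controls.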
# Chain of IRAK4 (Q9NWZ3 whole entry, species assumed): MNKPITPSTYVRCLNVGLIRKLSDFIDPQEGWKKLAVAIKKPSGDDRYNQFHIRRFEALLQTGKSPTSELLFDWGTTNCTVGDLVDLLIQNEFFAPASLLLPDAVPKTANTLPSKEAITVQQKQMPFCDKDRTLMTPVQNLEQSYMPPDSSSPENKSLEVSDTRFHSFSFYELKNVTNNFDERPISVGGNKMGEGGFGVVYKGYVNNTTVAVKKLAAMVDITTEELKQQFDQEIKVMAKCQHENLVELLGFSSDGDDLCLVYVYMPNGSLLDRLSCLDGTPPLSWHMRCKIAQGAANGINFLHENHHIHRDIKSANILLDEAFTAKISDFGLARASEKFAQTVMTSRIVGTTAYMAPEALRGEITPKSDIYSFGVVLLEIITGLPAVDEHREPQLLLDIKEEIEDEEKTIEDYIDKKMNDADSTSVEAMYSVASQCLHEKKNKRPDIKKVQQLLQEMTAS
row,IC50,Structure (SMILES)
1,87 nM,"CCCc1cn(-c2cnc(-n3cnc4cc(C#N)cnc43)cc2NC2COC2)nn1 [Example 277, 3-(4-(oxetan-3-ylamino)-5-(4-propyl-1H-1,2,3-triazol-1-yl)pyridin-2-yl)-3H-imidazo[4,5-b]pyridine-6-carbonitrile]"
2,17 nM,"CCCc1cn(-c2cnc(-n3cnc4cnc(N)nc43)cc2NC(C)C)nn1 [Example 279, 9-(4-(isopropylamino)-5-(4-propyl-1H-1,2,3-triazol-1-yl)pyridin-2-yl)-9H-purin-2-amine]"
3,157 nM,"CCCc1cn(-c2cnc(-n3cnc4cc(C#N)cnc43)cc2N[C@H](C)CO)nn1 [Example 286, (R)-3-(4-((1-hydroxypropan-2-yl)amino)-5-(4-propyl-1H-1,2,3-triazol-1-yl)pyridin-2-yl)-3H-imidazo[4,5-b]pyridine-6-carbonitrile]"
4,34 nM,"CCCc1cn(-c2cnc(-n3ncc4cc(C#N)cnc43)cc2NCC(C)(C)O)nn1 [Example 287, 1-(4-((2-hydroxy-2-methylpropyl)amino)-5-(4-propyl-1H-1,2,3-triazol-1-yl)pyridin-2-yl)-1H-pyrazolo[3,4-b]pyridine-5-carbonitrile]"
5,48 nM,"CC(C)Nc1cc(-n2ncc3cc(C#N)cnc32)ncc1-n1cc(CO)nn1 [Example 295, 1-(5-(4-(hydroxymethyl)-1H-1,2,3-triazol-1-yl)-4-(isopropylamino)pyridin-2-yl)-1H-pyrazolo[3,4-b]pyridine-5-carbonitrile]"
6,28 nM,"CC(C)Nc1cc(-n2ncc3cc(C#N)cnc32)ncc1-n1cc(-c2ccccc2)nn1 [Example 297, 1-(4-(isopropylamino)-5-(4-phenyl-1H-1,2,3-triazol-1-yl)pyridin-2-yl)-1H-pyrazolo[3,4-b]pyridine-5-carbonitrile]"
7,194 nM,"CC(C)Nc1cc(-n2ncc3cc(C#N)cnc32)ncc1-n1cc(C(C)(C)O)nn1 [Example 298, 1-(5-(4-(2-hydroxypropan-2-yl)-1H-1,2,3-triazol-1-yl)-4-(isopropylamino)pyridin-2-yl)-1H-pyrazolo[3,4-b]pyridine-5-carbonitrile]"
8,44 nM,"CC(C)Nc1cc(-n2ncc3cc(C#N)cnc32)ncc1-n1cc(-c2cccnc2)nn1 [Example 299, 1-(4-(isopropylamino)-5-(4-(pyridin-3-yl)-1H-1,2,3-triazol-1-yl)pyridin-2-yl)-1H-pyrazolo[3,4-b]pyridine-5-carbonitrile]"
9,22 nM,"CC(C)Nc1cc(-n2ncc3cc(C#N)cnc32)ncc1-n1cc(C2CC2)nn1 [Example 300, 1-(5-(4-cyclopropyl-1H-1,2,3-triazol-1-yl)-4-(isopropylamino)pyridin-2-yl)-1H-pyrazolo[3,4-b]pyridine-5-carbonitrile]"
10,22 nM,"CC(C)Nc1cc(-n2ncc3cc(C#N)cnc32)ncc1-n1cc(CN2CCOCC2)nn1 [Example 301, 1-(4-(isopropylamino)-5-(4-(morpholinomethyl)-1H-1,2,3-triazol-1-yl)pyridin-2-yl)-1H-pyrazolo[3,4-b]pyridine-5-carbonitrile]"
11,29 nM,"CC(C)Nc1cc(-n2ncc3cc(C#N)cnc32)ncc1-n1cc(CCO)nn1 [Example 302, 1-(5-(4-(2-hydroxyethyl)-1H-1,2,3-triazol-1-yl)-4-(isopropylamino)pyridin-2-yl)-1H-pyrazolo[3,4-b]pyridine-5-carbonitrile]"
12,115 nM,"CC(C)Nc1cc(-n2ncc3cc(C#N)cnc32)ncc1-n1cc(-c2ccccn2)nn1 [Example 304, 1-(4-(isopropylamino)-5-(4-(pyridin-2-yl)-1H-1,2,3-triazol-1-yl)pyridin-2-yl)-1H-pyrazolo[3,4-b]pyridine-5-carbonitrile]"
13,56 nM,"CC(C)Nc1cc(-n2ncc3cc(C#N)cnc32)ncc1-n1cc(CC(C)(C)O)nn1 [Example 306, 1-(5-(4-(2-hydroxy-2-methylpropyl)-1H-1,2,3-triazol-1-yl)-4-(isopropylamino)pyridin-2-yl)-1H-pyrazolo[3,4-b]pyridine-5-carbonitrile]"
14,80 nM,"CC(C)Nc1cc(-n2ncc3cc(C#N)cnc32)ncc1-n1cc(CN(C)C)nn1 [Example 308, 1-(5-(4-((dimethylamino)methyl)-1H-1,2,3-triazol-1-yl)-4-(isopropylamino)pyridin-2-yl)-1H-pyrazolo[3,4-b]pyridine-5-carbonitrile]"
15,304 nM,"CC(C)Nc1cc(-n2ncc3cc(C#N)cnc32)ncc1-n1cc(C(N)=O)nn1 [Example 309, 1-(6-(5-cyano-1H-pyrazolo[3,4-b]pyridin-1-yl)-4-(isopropylamino)pyridin-3-yl)-1H-1,2,3-triazole-4-carboxamide]"
16,108 nM,"CC(C)Nc1cc(-n2ncc3cc(C#N)cnc32)ncc1-n1cc(CN)nn1 [Example 310, 1-(5-(4-(aminomethyl)-1H-1,2,3-triazol-1-yl)-4-(isopropylamino)pyridin-2-yl)-1H-pyrazolo[3,4-b]pyridine-5-carbonitrile]"
17,213 nM,"CC(C)Nc1cc(-n2ncc3cc(C#N)cnc32)ncc1-n1cc(C(C)(C)N)nn1 [Example 312, 1-(5-(4-(2-aminopropan-2-yl)-1H-1,2,3-triazol-1-yl)-4-(isopropylamino)pyridin-2-yl)-1H-pyrazolo[3,4-b]pyridine-5-carbonitrile]"
18,115 nM,"CC(C)Nc1cc(-n2ncc3cc(C#N)cnc32)ncc1-n1cc(CNC(N)=O)nn1 [Example 313, 1-((1-(6-(5-cyano-1H-pyrazolo[3,4-b]pyridin-1-yl)-4-(isopropylamino)pyridin-3-yl)-1H-1,2,3-triazol-4-yl)methyl)urea]"
19,93 nM,"CNCc1cn(-c2cnc(-n3ncc4cc(C#N)cnc43)cc2NC(C)C)nn1 [Example 314, 1-(4-(isopropylamino)-5-(4-((methylamino)methyl)-1H-1,2,3-triazol-1-yl)pyridin-2-yl)-1H-pyrazolo[3,4-b]pyridine-5-carbonitrile]"
20,244 nM,"COc1cc(OC)cc(-c2cn(-c3cnc(-n4ncc5cc(C#N)cnc54)cc3NC(C)C)nn2)c1 [Example 316, 1-(5-(4-(3,5-dimethoxyphenyl)-1H-1,2,3-triazol-1-yl)-4-(isopropylamino)pyridin-2-yl)-1H-pyrazolo[3,4-b]pyridine-5-carbonitrile]"
21,60 nM,"CC(C)Nc1cc(-n2ncc3cc(C#N)cnc32)ncc1-n1cc(-c2cncn2C)nn1 [Example 317, 1-(4-(isopropylamino)-5-(4-(1-methyl-1H-imidazol-5-yl)-1H-1,2,3-triazol-1-yl)pyridin-2-yl)-1H-pyrazolo[3,4-b]pyridine-5-carbonitrile]"
22,39 nM,"CCC(C)(O)c1cn(-c2cnc(-n3ncc4cc(C#N)cnc43)cc2NC(C)C)nn1 (stereo not drawn) [Example 322, 1-(5-(4-(2-hydroxybutan-2-yl)-1H-1,2,3-triazol-1-yl)-4-(isopropylamino)pyridin-2-yl)-1H-pyrazolo[3,4-b]pyridine-5-carbonitrile]"
23,28 nM,"CC(C)Nc1cc(-n2ncc3cc(C#N)cnc32)ncc1-n1cc(-c2ccncc2)nn1 [Example 326, 1-(4-(isopropylamino)-5-(4-(pyridin-4-yl)-1H-1,2,3-triazol-1-yl)pyridin-2-yl)-1H-pyrazolo [3,4-b]pyridine-5-carbonitrile]"
24,26 nM,"CC(C)Nc1cc(-n2ncc3cc(C#N)cnc32)ncc1-n1cc(CCN)nn1 [Example 328, 1-(5-(4-(2-aminoethyl)-1H-1,2,3-triazol-1-yl)-4-(isopropylamino)pyridin-2-yl)-1H-pyrazolo[3,4-b]pyridine-5-carbonitrile]"
25,34 nM,"CC(C)Nc1cc(-n2ncc3cc(C#N)cnc32)ncc1-n1cc(CF)nn1 [Example 329, 1-(5-(4-(fluoromethyl)-1H-1,2,3-triazol-1-yl)-4-(isopropylamino)pyridin-2-yl)-1H-pyrazolo[3,4-b]pyridine-5-carbonitrile]"
26,3 nM,"CCN[C@H]1CC[C@H](c2cn(-c3cnc(-n4ncc5cc(C#N)cnc54)cc3NC(C)C)nn2)CC1 [Example 356, 1-(5-(4-((1s,4s)-4-(ethylamino)cyclohexyl)-1H-1,2,3-triazol-1-yl)-4-(isopropylamino)pyridin-2-yl)-1H-pyrazolo[3,4-b]pyridine-5-carbonitrile]"
27,2 nM,"CC(C)(O)CCc1cn(-c2cnc(-n3ncc4cc(C#N)cnc43)cc2N[C@H]2CC[C@@H](F)CC2)nn1 [Example 374, 1-(4-(((1r,4r)-4-fluorocyclohexyl)amino)-5-(4-(3-hydroxy-3-methylbutyl)-1H-1,2,3-triazol-1-yl)pyridin-2-yl)-1H-pyrazolo[3,4-b]pyridine-5-carbonitrile]"
28,3 nM,"CC(C)(O)CCc1cn(-c2cnc(-n3ncc4cc(C#N)cnc43)cc2N[C@H]2CC[C@H](O)CC2)nn1 [Example 385, 1-(5-(4-(3-hydroxy-3-methylbutyl)-1H-1,2,3-triazol-1-yl)-4-(((1 s,4s)-4-hydroxycyclohexyl)amino)pyridin-2-yl)-1H-pyrazolo[3,4-b]pyridine-5-carbonitrile]"
29,2 nM,"CC(=O)N[C@H]1CC[C@H](c2cc(-c3cnc(-n4ncc5cc(C#N)cnc54)cc3NC(C)C)on2)CC1 [Example 410, N-((1s,4s)-4-(5-(6-(5-cyano-1H-pyrazolo[3,4-b]pyridin-1-yl)-4-(isopropylamino)pyridin-3-yl)isoxazol-3-yl)cyclohexyl)acetamide]"
30,3 nM,"COC(=O)N[C@H]1CC[C@H](c2cc(-c3cnc(-n4ncc5cc(C#N)cnc54)cc3NC(C)C)on2)CC1 [Example 411, methyl ((1s,4s)-4-(5-(6-(5-cyano-1H-pyrazolo[3,4-b]pyridin-1-yl)-4-(isopropylamino)pyridin-3-yl)isoxazol-3-yl)cyclohexyl)carbamate]"
